A short description of the test: Percentage flow rate reduction (PFRR) of artificial sweat across a membrane coated with antiperspirant active. Conditions: metal deposited 0.004 g/membrane; 12 micron pore size, 50 mm dia.; flow of artificial sweat under 60 cm constant water bar pressure (5.9 kPa).

Experimental: The above solutions were deposited on a membrane as give below such that the metal deposited was 0.004 g/membrane.
Whatman cellulose nitrate membranes (AE 100, 12 micron nominal pore size, 50 mm dia.) were coated with required volume of desired % w/v or w/w solution of ACH in water. The coated membranes were taken out and kept in air for 30 mins. Then the membranes were put into a closed chamber having 250 ml 10% (v/v) ammoniacal solution inside to generate an ammoniacal blanketing at 25-30° C. temperature, for 4 hrs to neutralize the active. Then the neutralized membranes were kept in air for 6 hrs to remove excess moisture and were used for flow rate assessment. The membranes were fitted in the Millipore filtration set up and flow rate of artificial sweat under 60 cm constant water bar pressure was measured. The selected water bar pressure corresponds to 5.9 kPa, which is reported as the average secretory pressure of the sweat glands (avg.SPSG)
Whatman cellulose nitrate membranes (AE 100, 12 micron nominal pore size, 50 mm dia.) were coated with required volume of desired % w/v or w/w solution of zinc complex in ethanol. The coated membranes were taken out and kept in air for 15 mins. […]
The percentage flow rate reduction was calculated using the equation:

For Aluminium chlorohydrate [Example A], the “Avg % PFRR N = 8” value was determined as 66%.
Consider “Zinc lysine complex [Example C, Zinc lysine complex [Zn (lysine)2. Cl2.2H2O]]”, for which the “Avg % PFRR N = 8” value is recorded as 10%.
